Where a chain is given by its changes, count along the chain named. Like-named read-outs stand apart in the source and are kept apart here.
Tests used:
[1] = molecular target: T1, T877A mutated AR (Homo sapiens, UniProt P10275, T878A); experiment: Luciferase assay for AR transactivation, T877A AR, PC-3 cells; type: cell-based; conditions: 0.1 nM DHT; for suppression of DHT-induced transactivation of T877A AR: test compound 0.1-1 μM, PC-3 cells; for Antiandrogenic activity evaluated by luciferase assay in PC-3 cells T877A: test compound 1 μM
T1 sequence (P10275 1-920 T878A): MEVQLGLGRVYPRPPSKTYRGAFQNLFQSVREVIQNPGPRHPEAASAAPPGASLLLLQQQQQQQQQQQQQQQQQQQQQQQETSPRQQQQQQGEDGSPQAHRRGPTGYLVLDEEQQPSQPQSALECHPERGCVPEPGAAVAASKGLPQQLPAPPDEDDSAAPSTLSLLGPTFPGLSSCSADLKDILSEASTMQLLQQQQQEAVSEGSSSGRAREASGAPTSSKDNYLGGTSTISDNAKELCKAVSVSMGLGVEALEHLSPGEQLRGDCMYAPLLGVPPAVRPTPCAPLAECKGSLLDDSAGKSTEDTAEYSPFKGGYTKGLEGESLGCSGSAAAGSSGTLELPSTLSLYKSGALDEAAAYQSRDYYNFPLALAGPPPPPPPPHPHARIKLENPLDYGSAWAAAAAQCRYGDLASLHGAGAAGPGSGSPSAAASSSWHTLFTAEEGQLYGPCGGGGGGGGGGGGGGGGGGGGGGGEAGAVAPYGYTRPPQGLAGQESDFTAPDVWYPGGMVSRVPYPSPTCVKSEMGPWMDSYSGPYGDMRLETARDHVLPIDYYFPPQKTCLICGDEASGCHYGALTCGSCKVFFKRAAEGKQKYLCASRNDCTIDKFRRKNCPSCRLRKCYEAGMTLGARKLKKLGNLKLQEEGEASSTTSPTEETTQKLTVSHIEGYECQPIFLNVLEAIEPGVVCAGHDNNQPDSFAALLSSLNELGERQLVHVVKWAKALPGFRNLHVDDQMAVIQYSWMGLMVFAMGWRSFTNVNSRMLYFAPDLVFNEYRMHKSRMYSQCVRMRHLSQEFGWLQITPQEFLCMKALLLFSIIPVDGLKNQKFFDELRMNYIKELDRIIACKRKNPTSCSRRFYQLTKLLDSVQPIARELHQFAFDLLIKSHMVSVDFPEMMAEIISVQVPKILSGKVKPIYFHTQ
Protocol: (§1) PC-3 cells were transiently transfected with pCMV-MMTV-Luc, Renilla null luciferase and AR expressing plasmids. The cells were treated with 0.1 nM DHT with and without test compound for 24 hr. Relative luciferase activity was determined by dual luciferase assay kit (Promega), standardized to Renilla luciferase control and normalized to 0.1 nM DHT without test compound (100%).
(§2) After 16 h, the cells were treated with 0.1 nM of DHT and test compounds at the designated concentration. After further 24 h, the cells were lysed in 100 μL/well passive lysis buffer, and 20 μL of the cell lysates was used for detection of the luciferase activity using Dual Luciferase Assay System (Promega). All experiments were run in triplicate. Relative luciferase activity is determined as the ratio of inducible firefly luciferase luminescence divided by the luminescence of the renilla luciferase control normalized to 0.1 nM DHT without test compounds.
(§3) The potency of antagonistic activity: ++>+.

[2] = molecular target: T2, H874Y mutated AR (Homo sapiens, UniProt P10275, H875Y); experiment: Luciferase assay for AR transactivation, H874Y AR, PC-3 cells; type: cell-based; conditions: 0.1 nM DHT; for suppression of DHT-induced transactivation of H874Y AR: test compound 0.1-1 μM, PC-3 cells; for Antiandrogenic activity evaluated by luciferase assay in PC-3 cells H874Y: test compound 1 μM
T2 sequence (P10275 1-920 H875Y): T1 sequence (P10275 1-920 T878A) with H875Y, A878T
Protocol: as §1, §2, §3

[3] = tested on: LNCaP cells; experiment: MTT cell growth inhibition, LNCaP;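 further: MTT formazan absorbance at 600 nm read after 72 h of compound exposure, IC50 fitted by nonlinear regression of dose-response curves, samples run in triplicate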
Protocol: MDA PCa 2b was seeded at the same density in medium BRFF-HPC1 (Athena Enzyme Systems, Baltimore, Md., USA) supplemented with 20% FBS. After overnight incubation, the medium was changed to a fresh medium containing different concentrations of test compounds diluted from stock DMSO solution. The final concentration of DMSO is 0.5%. After 72 h of incubation with test compounds, 20 μL of 3-(4,5-dimethyl thiazol-2-yl)-2,5-diphenyltetrazolium bromide (MTT) solution (5 mg/mL in PBS) were added to each well and incubated further for 2 h. Next, the supernatant was aspirated and the MTT formazan formed by metabolically viable cells was dissolved in 100 μL of isopropanol. The plates were mixed for 30 min, and the absorbance was measured at 600 nm on a plate reader (FLUOstar OPTIMA, BMG LabTech). All samples were in triplicate. The IC50 values were determined from dose-response curves by nonlinear regression using PRISM v5.00 (GraphPad Software Inc, La Jolla, Calif., USA).
The in vitro cytotoxicity of 1-20 were evaluated by MTT assays in a panel of prostate cancer cell lines, including LNCaP, MDA PCa 2b, 22Rv1, C4-2B and PC-3.

[4] = read-out: Cellular IC50 (μM) LNCaP, Table 9

suppression of DHT-induced transactivation of T877A AR [1] | suppression of DHT-induced transactivation of H874Y AR [2] | IC50 ([3]; read-out: IC50 in LNCaP cells) | Structure (SMILES) | Antiandrogenic activity evaluated by luciferase assay in PC-3 cells T877A [1] | Antiandrogenic activity evaluated by luciferase assay in PC-3 cells H874Y [2] | IC50 [3, 4]
dose-dependent activity | dose-dependent activity | 0.74 µM | CC1=C(/C=C/C(=O)/C=C/c2cccc(C(F)(F)F)c2)C(C)(C)CCC1O (racemic) [Compound B25] | – | – | –
effective | effective | – | CC1(C)CCC(O)C=C1/C=C/C(=O)/C=C/c1cnc2ccccc2c1 (stereo not shown) [Compound B95] | ++ | ++ | 0.63 µM

Structure (SMILES) | suppression of DHT-induced transactivation of T877A AR [1] | suppression of DHT-induced transactivation of H874Y AR [2] | IC50 ([3]; read-out: IC50 in LNCaP cells) | Antiandrogenic activity evaluated by luciferase assay in PC-3 cells T877A [1] | Antiandrogenic activity evaluated by luciferase assay in PC-3 cells H874Y [2] | IC50 [3, 4]
CC1(C)CCC(O)C=C1/C=C/C(=O)/C=C/c1csc2ccccc12 (stereo not shown) [Compound B92] | pure antagonists | pure antagonists | – | ++ | + | 1.1 µM

Reference: patent US8470889B2 (TRT Pharma Inc., priority 2008, dated 2013)
